Source: paper PMC8004729, “Multifunctional Tyrosinase Inhibitor Peptides with Copper Chelating, UV-Absorption and Antioxidant Activities: Kinetic and Docking Studies” (Foods, 2021)
“Also recorded” adds a separate entry of the source. Marks after values point to notes of the source that are not given here. Residues, ends and D or L forms follow the SMILES beside them.

Legend:
Mushroom tyrosinase [1] = target: T1, Mushroom tyrosinase (Agaricus bisporus, UniProt C7FF04); assay: Diphenolase inhibitory activity of tyrosinase (ʟ-DOPA as substrate) and Lineweaver–Burk mode of inhibition; type: biochemical; conditions: diphenolase reaction; for Mode of Inhibition: Lineweaver–Burk plot, [S] 0.125 to 0.5 mM, different peptide concentrations
T1 construct: purchased Sigma-Aldrich
Experimental: (§1) The monophenolase and diphenolase inhibitory activities of tyrosinase were determined by using ʟ-tyrosine and ʟ-DOPA as substrates, respectively, as previously described. Various concentrations of peptides were tested to determine the IC50 values, i.e., the concentration of peptides required to inhibit half of the tyrosinase activities. The activities of monophenolase and diphenolase reactions were determined through the measurement of the rate of formation of dopachrome in the presence of substrate concentrations, [S] ranging from 0.125 to 0.5 mM. The initial velocity, V of the reaction was determined using the Beer–Lambert law:(1) ΔA=ε l Δc (2) V=ΔC/t=ΔA/ε l t where ΔC/t denotes the rate of change of the solution concentration; ΔA/t denotes the rate of change of absorbance i.e., slope of the reaction; ε denotes the molar extinction coefficient of dopachrome (3700 M^−1 cm^−1) and l denotes the pathlength.
Target sequence in this assay (C7FF04 1-392 limits assumed): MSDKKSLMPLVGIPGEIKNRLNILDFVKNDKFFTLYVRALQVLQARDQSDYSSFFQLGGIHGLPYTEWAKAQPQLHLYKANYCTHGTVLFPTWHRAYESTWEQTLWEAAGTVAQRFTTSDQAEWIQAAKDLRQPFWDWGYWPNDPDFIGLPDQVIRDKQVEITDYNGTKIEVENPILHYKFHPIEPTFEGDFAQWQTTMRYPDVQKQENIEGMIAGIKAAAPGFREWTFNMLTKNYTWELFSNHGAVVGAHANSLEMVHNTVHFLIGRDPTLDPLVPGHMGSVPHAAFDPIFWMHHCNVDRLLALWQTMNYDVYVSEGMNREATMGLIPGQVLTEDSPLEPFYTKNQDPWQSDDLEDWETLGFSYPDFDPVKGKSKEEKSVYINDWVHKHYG

[2] = Copper chelating activity (pyrocatechol violet); conditions: peptide 10 mg/mL, 50 mM sodium acetate buffer pH 6.0, absorbance 632 nm, mean ± standard deviation (n = 3), SD
Experimental: The copper chelating activity was determined according to Kubglomsong et al.. Briefly, 4 mM of chromogenic reagent, i.e., pyrocatechol violet was prepared in 50 mM sodium acetate buffer (pH 6.0). Then, 10 µL of peptide sample (10 mg/mL), 280 µL sodium acetate buffer, 10 µL CuSO4∙5H2O and lastly 6 µL pyrocatechol violet were added to a 96-well plate. The sample solution was mixed well and the absorbance was measured at 632 nm using a spectrophotometer (Spectramax M5, Molecular Devices, San Jose, CA, USA). Ethylenediaminetetraacetic acid (EDTA) was used as the positive control. The copper chelating activity is calculated as follows:(3) Copper chelating activity %=Acontrol−Asample/Acontrol×100 where Acontrol denotes the absorbance of the system containing sodium acetate buffer, pyrocatechol violet and CuSO4∙5H2O whereas Asample denotes the absorbance of the system containing peptide, sodium acetate buffer, pyrocatechol violet and CuSO4∙5H2O.

[3] = Ferric reducing antioxidant power (FRAP) assay; conditions: peptide 10 mg/mL; 37 °C for 1 h; absorbance 593 nm; mean ± standard deviation (n = 3); SD
Experimental: The reducing potential of peptides was measured according to Benzie and Strain [20]. ferric reducing antioxidant power (FRAP) reagent containing 300 mM acetate buffer (pH 3.6), 10 mM TPTZ prepared in 40 mM HCl and 20 mM FeCl3⸱6H2O in the ratio of 10:1:1 was incubated at 37 °C for 30 min. Then, 200 µL of FRAP reagent was added to 2.7 µL peptide sample (10 mg/mL) in a 96-well plate and mixed well before incubating at 37 °C for 1 h. The absorbance of the sample was then measured spectrophotometrically at 593 nm. Freshly prepared FRAP reagent was used for each run. A standard curve was prepared using FeSO4⸱7H2O at 0–3 mM. The peptide FRAP was expressed in mM FeSO4. Gallic acid was used as the positive control.

[4] = ABTS free radical scavenging assay; conditions: peptide 10 mg/mL; dark, room temperature, 6 min; absorbance 734 nm; mean ± standard deviation (n = 3); SD
Experimental: The free radical scavenging potential of peptides was measured according to Cai, Luo, Sun and Corke. Briefly, ABTS reagent containing 7 mM ABTS and 2.45 mM ammonium persulfate were incubated in the dark at room temperature for 12–16 h. The reagent was diluted using 80% ethanol to an absorbance of 0.700 ± 0.005 at 734 nm. Then, 195 µL of the diluted ABTS reagent was added to 5 µL of peptide sample (10 mg/mL) and incubated in the dark at room temperature for 6 min. The absorbance of the sample at 734 nm was monitored immediately using a spectrophotometer. Gallic acid was used as the positive control. The ABTS free radical scavenging activity is calculated as follows:(5) ABTS free radical scavenging activity %=Acontrol−Asample/Acontrol×100 where Acontrol denotes the absorbance of the system containing ABTS and water whereas Asample denotes the absorbance of the system containing ABTS and peptide sample.

[5] = DPPH free radical scavenging assay; conditions: peptide 10 mg/mL; 0.1 mM DPPH in ethanol, 30 °C for 30 min; absorbance 517 nm; mean ± standard deviation (n = 3); SD
Experimental: The free radical scavenging potential of peptides was measured according to Blois. Briefly, 0.1 mM DPPH stock solution was prepared in ethanol. In a dark setting, 500 µL of DPPH was added to 16.65 µL peptide sample (10 mg/mL) and incubated at 30 °C for 30 min. The absorbance of the mixture was then monitored at 517 nm using a spectrophotometer. Gallic acid was used as the positive control. The DPPH free radical scavenging activity is calculated as follows:(6) DPPH free radical scavenging activity %=Acontrol−Asample/Acontrol×100 where Acontrol denotes the absorbance of the system containing DPPH and ethanol whereas Asample denotes the absorbance of the system containing DPPH and peptide sample.

tyrosinase = target: tyrosinase; set-up: method as in 2 sources, ref 25 = [25]; PMID 10441774; doi:10.1002/(SICI)1099-1573(199908/09)13:5<371::AID-PTR453>3.0.CO;2-L; 25. Lim J.Y. Ishiguro K. Kubo I. Tyrosinase inhibitory p-Coumaric acid from Ginseng leaves Phytother. Res. 1999 13 371 375 10.1002/(SICI)1099-1573(199908/09)13:5<371::AID-PTR453>3.0.CO;2-L 10441774 ||| ref 26 = [26]; PMID 3141207; doi:10.1007/BF01941189; 26. Maddaluno J.F. Faull K.F. Inhibition of mushroom tyrosinase by 3-amino-L-tyrosines: Molecular probing of the active site of the enzyme Experientia 1988 44 885 887 10.1007/BF01941189 3141207; conditions: read-out: IC50 (tyrosinase mixed-type inhibitor); cited from earlier work
Mushroom tyrosinase [6] = target: T1, Mushroom tyrosinase; assay: Monophenolase inhibitory activity of tyrosinase (ʟ-tyrosine as substrate) and Lineweaver–Burk mode of inhibition; type: biochemical; conditions: monophenolase reaction; for Tyrosinase Activity Inhibition (%): substrate ʟ-tyrosine, peptide concentration 10 mg/mL, mean ± standard deviation (n = 3), SD; for Mode of Inhibition: Lineweaver–Burk plot, [S] 0.125 to 0.5 mM, different peptide concentrations
Experimental: as §1
Target sequence in this assay (C7FF04 1-392): as the sequence (C7FF04 1-392 limits assumed) above

[7] = Sun protection factor (SPF) by UV spectrophotometry, Mansur equation; type: physicochemical; conditions: peptide 10 mg/mL, UVB 290–320 nm absorbance, CF 10, mean ± standard deviation (n = 3), SD
Experimental: The ability of peptides to absorb light in the UVB region (290–320 nm) was measured according to the methods described by Dutra, Kedor-Hackmann and Santoro [18]. The UV–Vis spectrophotometer was set to scan the peptide samples from 220 to 400 nm with a 5 nm increment. The SPF values of the peptide samples (10 mg/mL) were calculated using the Mansur equation:(4) SPF=CF×∑290320EEλ×Iλ×Absλ where CF denotes correction factor of 10 (for the short pathlength used); EE denotes erythemal effect spectrum; I denotes solar intensity spectrum and Abs denotes the absorbance of sample.

[8] = substrate ʟ-DOPA, peptide concentration 10 mg/mL, mean ± standard deviation (n = 3), SD

Molecule | Copper Chelating Activity (%) [2] | Antioxidant Activity FRAP (mM FeSO4) [3] | Antioxidant Activity ABTS (%) free radical scavenging [4] | Tyrosinase Activity Inhibition (%) (Mushroom tyrosinase [6]) | Mode of Inhibition (Mushroom tyrosinase [6]) | SPF [7] | other results
CC(C)C[C@H](NC(=O)[C@H](CO)NC(=O)[C@H](Cc1ccc(O)cc1)NC(=O)CN)C(=O)NCC(=O)N[C@@H](CC(N)=O)C(=O)N[C@@H](Cc1c[nH]c2ccccc12)C(=O)N[C@H](C(=O)N[C@@H](CS)C(=O)N[C@@H](C)C(=O)N[C@@H](C)C(=O)N[C@@H](CCCCN)C(=O)O)C(C)C [DIP1] (H-GYSLGNWVCAAK-OH) | – | – | – | – | – | – | IC50 (Mushroom tyrosinase [1]; substrate ʟ-DOPA, mean ± standard deviation, SD): 3.04 ± 0.39 mM; inhibition at 10000 µg/mL (Mushroom tyrosinase [1]; [8]): 80 ± 2.79%
O=C(O)CN(CCN(CC(=O)O)CC(=O)O)CC(=O)O [EDTA, Ethylenediaminetetraacetic acid, reference compound] | 96.06 ± 0.03^e % | – | – | – | – | – | –
O=C(O)c1cc(O)c(O)c(O)c1 [Gallic acid, reference compound] | – | 16.6 ± 0.36 ^c mM FeSO4 | 83.14 ± 3.02 ^d % | – | – | – | Antioxidant Activity DPPH (%) free radical scavenging [5]: 81.67 ± 0.03 ^b %
O=C(O)/C=C/c1ccc(O)cc1 [p-coumaric acid] | – | – | – | – | – | – | IC50 (tyrosinase): < 0.36 mM
ADHPF [MIP1] | 94.33 ± 0.04 ^e % | 0.035 ± 0.004 ^a mM FeSO4 | 2.90 ± 0.28 ^b % | 35.86 ± 2.26 ^d % | competitive inhibitors | 1.80 ± 0.02 ^b | –
FDKLPGFGD [MIP3] | 94.43 ± 0.46 ^e % | 0.034 ± 0.002 ^a mM FeSO4 | 2.11% | 22.78 ± 1.12 ^b % | mixed-type inhibitor | 1.36 ± 0.02 ^a | –
FMMFESQNKDLLFK [DIP3] | 26.23 ± 1.03 ^c % | – | 0.99% | – | – | 1.98 ± 0.05 ^b | Tyrosinase Activity Inhibition (%) (Mushroom tyrosinase [1]; [8]): 28.95 ± 1.47 ^c %; Mode of Inhibition (Mushroom tyrosinase [1]): uncompetitive inhibitor
HIATNAVLFFGR [DIP2] | 19.13 ± 2.22 ^b % | 0.018 ± 0.001 ^a mM FeSO4 | – | – | – | 6.45 ± 0.40 ^d | Tyrosinase Activity Inhibition (%) (Mushroom tyrosinase [1]; [8]): 17.70 ± 2.66 ^a %; Mode of Inhibition (Mushroom tyrosinase [1]): weaker competitive inhibitor; also recorded: competitive inhibitors
ILELPFASGDLLML [MIP2] | 11.41 ± 0.13 ^a % | – | 1.44% | 17.26 ± 2.10 ^a % | weaker competitive inhibitor; also recorded: competitive inhibitors | 3.12 ± 0.13 ^c | –
